One assay has as its system 211H (mesothelioma). Nature of the assay: Apoptosis analysis (Annexin V FITC, flow cytometry). Type of assay: cell-based, human. The settings on record: 3 days. On the procedure: (§1) Apoptosis was analyzed by using an Annexin V FITC Apoptosis Detection Kit (Biosource, Camarillo, Calif.), according to the manufacturer's protocol. After treatment with different small molecule compounds at various concentrations for about 3 days, cells were harvested by trypsinization, stained and immediately analyzed by flow cytometry (FACScan; Decton Dickinson, Franklin Lake, N.J.). Early apoptotic cells with exposed phosphatidylserine but intact cell membranes will bind to Annexin V-FITC, but not propidium iodide (PI). Cells in necrotic or late apoptotic stages will be labeled with both Annexin V-FITC and PI. “% apoptotic cells” or “% apoptosis” refers to the combined early and late apoptotic cells.
Flow cytometry was used to examine apoptosis in the mesothelioma cell line 211H after treatment of cells with small molecule compounds FN1-5 and FN1-8.
Background: A flow cytometer gives signals particle by particle.

In assay [1] the test system is GLI1- and GLI2-induced transcription in Panc4.21 pancreatic cancer cells. The assay can be described thus: 6xGLI BS-luciferase reporter assay. It counts as cell-based, human. The settings on record: for 6xGLI BS-luciferase activity (TAFII31 co-transfected with GLI1 or GLI2): Panc4.21, 20 μM for 16-20 hours; for 6xGLI BS-luciferase activity (GLI1- or GLI2-induced): Panc4.21, 20 μM, 16-20 hours. On the procedure:
One day before transfection, cells (1×10^5) were plated in 12-well plates with growth medium without antibiotics. When cells reached 80-90% of confluence they were co-transfected using 0.5 μg of each promoter construct in pGL3Basic vector and 0.025 μg pRL-TK Vector (Promega; Madison, Wis.) containing Renilla Luciferase as an internal control for the transformation efficiency. Lipofectamine 2000™ (Invitrogen Life Technologies) was used to mediate transfection for about 6 hours. […] Briefly, cells were lysed in a lysis buffer and Firefly and Renilla Luciferase activities in cells of each well, were measured using Dual-Luciferase Assay System (Promega) and an illuminometer. The measured luciferase activities were normalized to pRL-TK Vector activity and were given relative to the basal activity of empty pGL3-Basic Vector, which was set to unity. The data shown represent mean values (±S.D.). All measurements were performed in triplicate and repeated in at least three independent experiments. The human Wnt-2 promoter-luciferase construct, the human SOCS3 promoter-Luciferase construct and the human Gremlin promoter-luciferase construct were cloned and characterized in the laboratory of Dr. Jablons at the University of California, San Francisco (San Francisco, Calif.; He et al., Biochem Biophy Res Comm, 2003; and unpublished data). The 6GLI-TKO-luciferase construct (containing 6 repeats of consensus GLI DNA binding sequence) was kindly provided by Dr. Matthias Hebrok's laboratory at the University of California, San Francisco (San Francisco, Calif.).
To further examine the specificity of the small molecule compounds FN1-5 and FN1-8 to inhibit Hh/Gli signaling pathways, GLI-dependent transcription in the absence and presence of these compounds was also determined in pancreatic cancer cells.
This finding also provides a method for inhibiting GLI1- and GLI2-dependent transcription in a cell.
The TAFII31 expression plasmid contained the full-length TAFII31 cDNA generated by PCR cloned into the EcoRI (5′) and BamHI (3′) sites of a mammalian expression vector containing a c-Myc tag (pCDNA3.1 (−)B. The sequence of TAFII31 corresponds to GenBank Accession No. U25112.
(In general: In a reporter assay the amount or activity of a reporter protein is the signal.)

Assay [2] concerns human Wnt2 promoter in NSCLC cell line A549. Nature of the assay: Wnt2 promoter-luciferase reporter assay. Type of assay: cell-based. The settings on record: for Wnt2 promoter activity: A549, 30 μM, 18-24 hours. As to the method:
One day before transfection, cells (1×10^5) were plated in 12-well plates with growth medium without antibiotics. When cells reached 80-90% of confluence they were co-transfected using 0.5 μg of each promoter construct in pGL3Basic vector and 0.025 μg pRL-TK Vector (Promega; Madison, Wis.) containing Renilla Luciferase as an internal control for the transformation efficiency. Lipofectamine 2000™ (Invitrogen Life Technologies) was used to mediate transfection for about 6 hours. Then the medium was replaced with fresh medium containing various small molecule compounds at a concentration of 30 μM, and the resulting cells were cultured for an additional 18-24 hours and subjected to luciferase assay. Briefly, cells were lysed in a lysis buffer and Firefly and Renilla Luciferase activities in cells of each well, were measured using Dual-Luciferase Assay System (Promega) and an illuminometer. The measured luciferase activities were normalized to pRL-TK Vector activity and were given relative to the basal activity of empty pGL3-Basic Vector, which was set to unity. The data shown represent mean values (±S.D.). All measurements were performed in triplicate and repeated in at least three independent experiments. The human Wnt-2 promoter-luciferase construct, the human SOCS3 promoter-Luciferase construct and the human Gremlin promoter-luciferase construct were cloned and characterized in the laboratory of Dr. Jablons at the University of California, San Francisco (San Francisco, Calif.; He et al., Biochem Biophy Res Comm, 2003; and unpublished data). The 6GLI-TKO-luciferase construct (containing 6 repeats of consensus GLI DNA binding sequence) was kindly provided by Dr. Matthias Hebrok's laboratory at the University of California, San Francisco (San Francisco, Calif.).
To examine the specificity of the small molecule compounds of the invention, the compounds were tested for regulate the expression of Gli down-stream target genes. […] The human Wnt2 promoter was cloned and found to contain putative Gli-DNA binding sites within its promoter region (data not shown). […]

Another assay has as its system H460 (NSCLC). Nature of the assay: Apoptosis analysis (Annexin V FITC, flow cytometry). Type of assay: cell-based, human. The settings on record: 3 days. On the procedure: as §1
The test system of the next assay is H838 (NSCLC). The assay is described as above. It counts as cell-based, human. The conditions noted are these: 3 days. On the procedure:
as §1

A further assay relates to CaCO2 (colon cancer). The description is as above. It counts as cell-based, human. The conditions noted are these: about 3 days. On the procedure: as §1
Assay [3] concerns colon cancer cell line HT29. The assay can be described thus: Cell survival assay (crystal violet). Type of assay: cell-based, human. The conditions noted are these: FN1-8 even at higher doses (50 μM), data not shown. On the procedure: (§2) Typically, the small molecule compounds of the present invention were dissolved in DMSO at a concentration of 30 mM. The small molecule compounds were then tested under cell culture conditions at different concentrations ranging from 0, 10, 30, 50, to 100 uM. To determine cell survival after treatment, the cells were incubated with the small molecule compounds in 6-well plates for about 3 days. After removal of the cell culture medium, 1-ml of 0.5% crystal violet solution (prepared in 20% ethanol and 20% methanol) was added to stain the cells for 5 min. Then the crystal violet solution was rinsed clean with tap water. Cell survival was estimated based on the density of crystal stained plates.

For assay [4], the system named is NSCLC cell lines H460, H838, H1975, H1650, and H1703. The assay can be described thus: Cell survival assay (crystal violet). It counts as cell-based, human. The settings on record: for cell killing: data not shown. As to the method: as §2

Turning to `O=C(NCCCCCO)C1C(c2ccccc2)=NN(c2ccccc2)C1c1ccccc1` (stereo not drawn) [FN1-5, N-(5-Hydroxypentyl)-1,3,5-triphenyl-4,5-dihydro-pyrazole-4-carboxyamide], the “% of apoptotic cells” value in the assay on 211H (mesothelioma) (10 μM) turned out to be 7.7%; in the assay with 211H (mesothelioma) (30 μM), 37.5%; in the assay on H460 (NSCLC) (H460, 30 μM) it was 11.9%; in the assay on H460 (NSCLC) (H460, 50 μM), 15.7%; with H838 (NSCLC) (H838, 30 μM), 14.2%; in the assay with H838 (NSCLC) (H838, 50 μM), 20.0%. Moreover, the “% of apoptotic cells” value in the assay on CaCO2 (colon cancer) (CaCO2, 10 μM) is 8.2%; with CaCO2 (colon cancer) (CaCO2, 30 μM), 19.8%; in the assay with CaCO2 (colon cancer) (CaCO2, 50 μM), 30.3%. For the same compound, in assay [1], the “6xGLI BS-luciferase activity (TAFII31 co-transfected with GLI1 or GLI2)” value is recorded as “significantly reduced”. Also, the “6xGLI BS-luciferase activity (GLI1- or GLI2-induced)” value in assay [1] is “significantly reduced level of luciferase activity”. In addition, in assay [2], the Wnt2 promoter activity entry is recorded as “down-regulate Wnt2 promoter activity dramatically”. For the same compound, the cell killing entry in assay [3] and in assay [4] was “dramatic cell killing” throughout.

As for `O=C(NCCc1ccc(O)cc1)C1C(c2ccccc2)=NN(c2ccccc2)C1c1ccccc1` (stereo not drawn) [FN1-8, N-(2-(4-Hydroxyphenyl)ethyl)-1,3,5-triphenyl-4,5-dihydro-pyrazole-4-carboxyamide], the “% of apoptotic cells” value in the assay on 211H (mesothelioma) (10 μM) is 5.6%; with 211H (mesothelioma) (30 μM), 30.7%; in the assay on H460 (NSCLC) (H460, 30 μM) it was 12.1%; in the assay with H460 (NSCLC) (H460, 50 μM), 75.2%; in the assay with H838 (NSCLC) (H838, 10 μM), 10.6%; with H838 (NSCLC) (H838, 30 μM) it was 18.3%. In addition, the “% of apoptotic cells” value is listed as 82.3% with H838 (NSCLC) (H838, 50 μM); 19.9% in the assay with CaCO2 (colon cancer) (CaCO2, 30 μM); 39.4% in the assay with CaCO2 (colon cancer) (CaCO2, 50 μM). Besides, the “6xGLI BS-luciferase activity (TAFII31 co-transfected with GLI1 or GLI2)” value in assay [1] is “significantly reduced”. For the same compound, the “6xGLI BS-luciferase activity (GLI1- or GLI2-induced)” value in assay [1] is given as “significantly reduced level of luciferase activity”. Besides, in assay [2], the Wnt2 promoter activity result is “down-regulate Wnt2 promoter activity dramatically”. The “Wnt2 expression (Wnt2 promoter-luciferase reporter activity assay)” value in assay [2] (after FN1-8 treatment, data not shown) is on record as “down-regulated”. Further, the figures for the cell killing entry in assay [3] and in assay [4] were “no cell killing” and “dramatic cell killing”, respectively. In assay [4] (same concentrations), the “cell killing potency compared with FN1-5” value was “more potent than FN1-5”.

The values above are taken from patent US7714014B2, “Targeting GLI proteins in human cancer by small molecules” (The Regents of the University of California, priority 2005, dated 2010).
